What was measured:
[1] = tested on: Skin diploid fibroblastic cells; test: Cell survival assay, normal fibroblasts; format: cell-based; settings: Fibroblast, 48 h exposure, survival by nuclei count, read-out: Cell lines IC50 Fibroblats
Protocol: (§1) Skin diploid fibroblastic cells were provided by BIOPREDIC International Company (Rennes, France). Caco-2 cells and Huh7 cells were obtained from the ECAC collection. Cells were grown according to ECAC recommendations. The RLEC-F1 clone was derived from an established rat biliary epithelial cell line as previously described. The toxicity test of the compounds on these cells was as follows: 4 × 10^3 cells were seeded in 96 multiwell plates and left for 24 h for attachment, spreading, and growing. Then they were exposed for 48 h to increasing concentrations of the compounds, ranging from […] in a final volume of 80 μL of culture medium. They were then fixed with 4% paraform-aldehyde solution and the nuclei were stained with […] and counted using automated imaging analysis (Simple PCI software).

CLK1 = CLK1 (Homo sapiens, UniProt P49759); test: In vitro kinase inhibition assay CLK1; format: biochemical; settings: for IC50: 15 μM ATP, 30°C, buffer A, RS peptide
Protocol: (§2) Buffer A: 10 mM MgCl2, 1 mM EGTA, 1 mM DTT, 25 mM Tris-HCl pH 7.5, 50 μg heparin/ml. Buffer C: 60 mM ß-glycerophosphate, 15 mM p-nitrophenylphosphate, 25 mM Mops (pH 7.2), 5 mM EGTA, 15 mM MgCl2, 1 mM DTT, 1 mM sodium vanadate, 1 mM phenylphosphate. […] Blank values were subtracted and activities expressed in % of the maximal activity, i.e. in the absence of inhibitors. Controls were performed with appropriate dilutions of DMSO. The kinase peptide substrates were obtained from Millegen (Labege, France). […] ATP (3,000 Ci/mmol; 10 mCi/ml) in a final volume of 30 μl. After 30 min incubation at 30°C, the reaction was stopped by harvesting onto P81 phosphocellulose papers (Whatman) using a FilterMate harvester (Packard) and were washed in 1% phosphoric acid. Scintillation fluid was added and the radioactivity was measured in a Packard counter. CLK1 and CLK3 (human, recombinant, expressed in E. coli as GST fusion proteins) were assayed in buffer A (+ 0.15 mg BSA /ml) with RS peptide ([sequence]) (1μg/assay). […] Its kinase activity was assayed in buffer C, with 1 μg histone H1 /ml. GSK-3α/β (porcine brain, native) was assayed in Buffer A and using a GSK-3 specific substrate (GS-1: [sequence]pEDEEE) (pS stands for phosphorylated serine) [20].

HCT 116 = test: Cell survival assay, HCT 116 (colon) tumor cell line; format: cell-based; settings: Homo sapiens; HCT 116 colon tumor cells, 48 h exposure, survival by nuclei count; read-out: Cell lines IC50 HCT 116
MDA-MB 231 = test: Cell survival assay, MDA-MB 231 (breast) tumor cell line; format: cell-based; settings: Homo sapiens; MDA-MB 231 breast tumor cells, 48 h exposure, survival by nuclei count; read-out: Cell lines IC50 MDA-MB 231
GSK-3α/β = test: In vitro kinase inhibition assay GSK3α/β; format: biochemical, porcine; settings: for IC50: 15 μM ATP, 30°C, buffer A, GS-1 substrate
Protocol: as §2

DYRK2 = biological target: T1, DYRK2 (Homo sapiens, UniProt Q92630); test: In vitro kinase inhibition assay DYRK2; format: biochemical; settings: for IC50: 15 μM ATP, 30°C, buffer A, Woodtide substrate
T1 sequence (Q92630 1-601): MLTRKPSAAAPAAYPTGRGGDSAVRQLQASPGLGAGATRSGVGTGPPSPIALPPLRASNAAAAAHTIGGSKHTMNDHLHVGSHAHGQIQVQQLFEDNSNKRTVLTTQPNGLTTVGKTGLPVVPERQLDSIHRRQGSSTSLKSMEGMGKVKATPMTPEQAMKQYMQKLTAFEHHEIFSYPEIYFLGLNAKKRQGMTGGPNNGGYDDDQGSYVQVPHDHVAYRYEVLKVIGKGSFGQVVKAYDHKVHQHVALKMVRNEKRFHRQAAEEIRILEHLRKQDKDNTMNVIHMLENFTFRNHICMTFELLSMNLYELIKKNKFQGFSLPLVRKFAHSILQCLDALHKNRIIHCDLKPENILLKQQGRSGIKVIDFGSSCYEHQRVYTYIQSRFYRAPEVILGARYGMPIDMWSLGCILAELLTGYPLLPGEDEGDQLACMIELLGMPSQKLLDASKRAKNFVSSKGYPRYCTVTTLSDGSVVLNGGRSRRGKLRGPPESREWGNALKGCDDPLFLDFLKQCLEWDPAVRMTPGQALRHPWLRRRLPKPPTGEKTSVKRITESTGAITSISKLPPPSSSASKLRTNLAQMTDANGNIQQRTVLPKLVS

PC3 = test: Cell survival assay, PC3 (prostate) tumor cell line; format: cell-based; settings: Homo sapiens, PC-3; PC3 prostate tumor cells, 48 h exposure, survival by nuclei count; read-out: Cell lines IC50 PC3
CLK2 = test: In vitro kinase inhibition assay CLK2; format: biochemical, human; settings: for IC50: 15 μM ATP, 30°C, buffer A, RS peptide
Protocol: Buffer A: 10 mM MgCl2, 1 mM EGTA, 1 mM DTT, 25 mM Tris-HCl pH 7.5, 50 μg heparin/ml. […] Blank values were subtracted and activities expressed in % of the maximal activity, i.e. in the absence of inhibitors. Controls were performed with appropriate dilutions of DMSO. The kinase peptide substrates were obtained from Millegen (Labege, France). […] ATP (3,000 Ci/mmol; 10 mCi/ml) in a final volume of 30 μl. After 30 min incubation at 30°C, the reaction was stopped by harvesting onto P81 phosphocellulose papers (Whatman) using a FilterMate harvester (Packard) and were washed in 1% phosphoric acid. Scintillation fluid was added and the radioactivity was measured in a Packard counter.

DYRK1A = DYRK1A (Homo sapiens, UniProt Q13627); test: In vitro kinase inhibition assay DYRK1A; format: biochemical; settings: for IC50: 15 μM ATP, 30°C, buffer A, Woodtide substrate
Protocol: as §2

NCI = test: Cell survival assay, NCI (lung) tumor cell line; format: cell-based; settings: NCI lung tumor cells, 48 h exposure, survival by nuclei count; read-out: Cell lines IC50 NCI
CDK5/p25 = biological target: T2, CDK5/p25 (Homo sapiens, UniProt Q00535); test: In vitro kinase inhibition assay CDK5/p25; format: biochemical; settings: for IC50: 15 μM ATP, 30°C, buffer C, histone H1
T2 construct: made in house
Protocol: as §2

Huh7 = test: Cell survival assay, Huh7 (liver) tumor cell line; format: cell-based; settings: Homo sapiens, Huh-7; Huh7 liver tumor cells, 48 h exposure, survival by nuclei count; read-out: Cell lines IC50 Huh7
Protocol: as §1

Caco2 = test: Cell survival assay, Caco2 (colon) tumor cell line; format: cell-based; settings: Homo sapiens, Caco-2; Caco2 colon tumor cells, 48 h exposure, survival by nuclei count; read-out: Cell lines IC50 Caco2
Protocol: as §1

T2 sequence (Q00535 whole entry): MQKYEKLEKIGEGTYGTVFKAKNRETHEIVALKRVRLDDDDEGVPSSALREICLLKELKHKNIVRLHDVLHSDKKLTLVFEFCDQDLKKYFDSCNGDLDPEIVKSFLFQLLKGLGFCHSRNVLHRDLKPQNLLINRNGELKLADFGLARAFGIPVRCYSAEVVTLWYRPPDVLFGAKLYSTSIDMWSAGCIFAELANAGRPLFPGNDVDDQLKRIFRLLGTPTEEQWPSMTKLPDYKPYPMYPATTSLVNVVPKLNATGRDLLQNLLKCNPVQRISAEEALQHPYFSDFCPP
T2 sequence (Q15078 99-307 partner limits assumed): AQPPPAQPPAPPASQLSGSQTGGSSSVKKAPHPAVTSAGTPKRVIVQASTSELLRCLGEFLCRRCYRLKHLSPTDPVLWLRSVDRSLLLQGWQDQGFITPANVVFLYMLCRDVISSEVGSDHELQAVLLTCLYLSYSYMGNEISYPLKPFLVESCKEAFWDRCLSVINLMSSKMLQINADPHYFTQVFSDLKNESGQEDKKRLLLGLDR
Chain of CLK1 (P49759 whole entry): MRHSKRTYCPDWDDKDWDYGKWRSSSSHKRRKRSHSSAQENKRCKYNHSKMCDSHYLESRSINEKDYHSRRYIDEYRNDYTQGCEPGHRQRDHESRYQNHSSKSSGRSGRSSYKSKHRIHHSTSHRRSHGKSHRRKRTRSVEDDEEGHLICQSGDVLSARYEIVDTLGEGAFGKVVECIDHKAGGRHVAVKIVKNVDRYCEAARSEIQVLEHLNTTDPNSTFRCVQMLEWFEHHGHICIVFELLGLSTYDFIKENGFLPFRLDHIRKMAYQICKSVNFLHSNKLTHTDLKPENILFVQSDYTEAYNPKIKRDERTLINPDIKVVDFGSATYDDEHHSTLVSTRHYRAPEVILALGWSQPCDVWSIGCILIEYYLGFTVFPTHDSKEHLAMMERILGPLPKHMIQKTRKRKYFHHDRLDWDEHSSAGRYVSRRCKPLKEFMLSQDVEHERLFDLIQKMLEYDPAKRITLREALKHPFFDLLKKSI

Compound	IC50 [1] [µM]	IC50 (HCT 116) [µM]	IC50 (MDA-MB 231) [µM]	IC50 (GSK-3α/β) [µM]	IC50 (PC3) [µM]	IC50 (DYRK1A) [µM]	IC50 (NCI) [µM]	IC50 (CDK5/p25) [µM]	IC50 (Huh7) [µM]	IC50 (Caco2) [µM]	melting point [°C]	also measured
COc1ccc(/C=C2\SC(=S)NC2=O)cc1 [Compound 3b, (5Z)-5-(4-Methoxybenzylidene)-2-thioxo-1,3-thiazolidin-4-one]	> 25	> 25	> 25	> 10	> 25	> 10	> 25	> 10	> 25	> 25		Activity towards CLK1 (in words) (CLK1): inactive; IC50 (CLK1): > 10 µM; Activity towards GSK3α/β (in words) (GSK-3α/β): inactive; Activity towards DYRK2 (in words) (DYRK2): inactive; IC50 (DYRK2): > 10 µM; Activity towards CLK2 (in words) (CLK2): inactive; IC50 (CLK2): > 10 µM; Activity towards DYRK1A (in words) (DYRK1A): inactive; Activity towards CDK5/p25 (in words) (CDK5/p25): inactive
O=C1NC(=S)S/C1=C\c1ccc2c(c1)OCO2 [Compound 3c, (5Z)-5-(1,3-Benzodioxol-5-ylmethylidene)-2-thioxo-1,3-thiazolidin-4-one]	> 25	> 25	> 25	8.5	> 25	0.07	> 25	> 10	> 25	> 25		
O=C(O)CCN1C(=O)/C(=C/c2ccccc2)SC1=S [Compound 3d, 3-[(5Z)-5-Benzylidene-4-oxo-2-thioxo-1,3-thiazolidin-3-yl]propanoic acid]											224 to 226	
O=C(O)CCN1C(=O)/C(=C/c2ccc3c(c2)OCCO3)SC1=S [Compound 3g, 3-[(5Z)-5-(2,3-Dihydro-1,4-benzodioxin-6-ylmethylidene)-4-oxo-2-thioxo-1,3-thiazolidin-3-yl]propanoic acid]											226 to 228	
O=C1N=C(N2CCN(C3=NC(=O)/C(=C/c4ccccc4)S3)CC2)S/C1=C\c1ccccc1 [Compound 5a, (5Z,5’Z)-2,2’-(Piperazine-1,4-diyl)bis(5-benzylidene-1,3-thiazol-4(5H)-one)]	> 25	> 25	> 25		> 25		> 25		> 25	25	> 260	
COc1ccc(/C=C2\SC(N3CCN(C4=NC(=O)/C(=C/c5ccc(OC)cc5)S4)CC3)=NC2=O)cc1 [Compound 5b, (5Z,5’Z)-2,2’-(Piperazine-1,4-diyl)bis[5-(4-methoxybenzylidene)-1,3-thiazol-4(5H)-one]]											> 260	
O=C1N=C(N2CCN(C3=NC(=O)/C(=C/c4ccc5c(c4)OCO5)S3)CC2)S/C1=C\c1ccc2c(c1)OCO2 [Compound 5c, (5Z,5’Z)-2,2’-(Piperazine-1,4-diyl)bis[5-(1,3-benzodioxol-5-ylmethylene)-1,3-thiazol-4(5H)-one]]	40	> 25	> 25		40		> 25		> 25	20		
COc1ccc(/C=C2\SC(NCCCN3CCN(CCCNC4=NC(=O)/C(=C/c5ccc(OC)cc5)S4)CC3)=NC2=O)cc1 [Compound 5d, (5Z,5’Z)-2,2’-[Piperazine-1,4-diylbis(propane-3,1-diylimino)]bis[5-(4-methoxybenzylidene)-1,3-thiazol-4(5H)-one]]				> 10		0.041		> 10			220 to 222	IC50 (CLK1): 0.5 µM; IC50 (DYRK2): 0.6 µM; IC50 (CLK2): 7.7 µM; Activity towards DYRK1A (in words) (DYRK1A): nanomolar inhibition potency
O=C1N=C(NCCCN2CCN(CCCNC3=NC(=O)/C(=C/c4ccc5c(c4)OCO5)S3)CC2)S/C1=C\c1ccc2c(c1)OCO2 [Compound 5e, (5Z,5’Z)-2,2’-[Piperazine-1,4-diylbis(propane-3,1-diylimino)]bis[5-(1,3-benzodioxol-5-ylmethylene)-1,3-thiazol-4(5H)-one]]											222 to 224	

— PMC3528043, “Synthesis of New N,N’-Bis(5-arylidene-4-oxo-4,5-dihydrothiazolin-2-yl)piperazine Derivatives Under Microwave Irradiation and Preliminary Biological Evaluation” (Scientia Pharmaceutica, 2012)
